Results published in patent publication US20250213548A1, “PHARMACEUTICAL COMPOSITIONS FOR IMPROVING ORAL BIOAVAILABILITY” (Bristol-Myers Squibb Company, priority 2022, published 2025).

How the values were obtained:
[1] = cynomolgus monkey, in vivo, iv, 0.1 mg/kg
Procedure: (§1) Four coated tablets were added in each #00 gray opaque hard gelatin capsule for the cyno PK study. Each cyno monkey was dosed with 2 capsules (8 coated tablets).
(§2) Fasted male cyno monkeys (n=3) were dosed by oral route followed by gavage flush with water to facilitate gastro-intestinal dissolution. Blood samples were taken at predetermined times over 72 hours post-dose to measure comparative pharmacokinetics between the formulations. Due to the long half-life these were conducted in a parallel group design in different sets of cyno monkeys.

[2] = Oral absorption of formulated tablets of Compound (II) in cyno monkeys (PK); details: cynomolgus monkey, iv, 0.1 mg/kg
Procedure: as §1, §2

[3] = in vivo; details: beagle, dog, iv, 10 mg
Procedure: (§3) Fasted pentagastrin-pretreated male beagle dogs (n=4) were dosed by oral route followed by gavage flush with water to facilitate gastro-intestinal dissolution. Blood samples were taken at predetermined times over 72 hours post-dose to measure comparative pharmacokinetics between the formulations. Due to the long half-life these were conducted in a parallel group design in different sets of dogs.

[4] = in vivo; details: dog, iv, 10 mg
Procedure: Dogs were administered formulations as follows: • 2×50 mg tablets with 10% API (Example 10, 88.6 mg dose after API potency correction) • 10×10-mg tablets with 10% API (Example 11, 88.6 mg dose after API potency correction) • 5×10 mg tablets with 10% API (Example 11, 44.3 mg dose after API potency correction) and 5 placebo tablets with enhancer only. • 10×5 mg tablets with 5% API (44.3 mg dose after API potency correction) • 40×2.5 mg tablets with 10% API (Example X, 100 mg dose after potency correction)

[5] = Oral absorption of prepared formulations of Compound (II) in dogs (Example 10, 70 mg); details: beagle, dog, blood, iv, 10 mg
Procedure: as §3

[6] = in vivo; details: cynomolgus monkey, iv
Procedure: as §1, §2

[7] = rat, in vivo
Procedure: The study was run as a two-treatment, two-segment, parallel study in anesthetized, fasted, male Sprague Dawley rats (rat weight: ˜300 g) with 4 rats per group.
For duodenal absorptional testing, the rats were ligated at pylorus (proximal) and the subject formulation was injected directly into duodenum 5 cm past pylorus ligation (about 15 cm from the pylorus) and the distal part of the segment was ligated to contain drug in intestinal segment.
Samples of the dosed solution from gastric and duodenal segments were extracted at 60 min to measure remaining drug concentrations.

[8] = in vivo; details: beagle, dog, iv, 10 mg; remark: listed apart in the source
Procedure: as §3

**Q.** With `CCCC[C@H]1C(=O)N(C)[C@@H](CCCC)C(=O)N[C@@H](CC(C)C)C(=O)N[C@H](C(=O)NCC(=O)N[C@@H](Cc2cn(CCOCCOCCCOCCCOCCOCCOCCOCCOCCOCCOCCOCCNC(=O)CC[C@H](NC(=O)CCCCCCCCCCCCCCCCC(=O)O)C(=O)O)nn2)C(=O)O)CSCC(=O)N[C@@H](Cc2ccc(O)cc2)C(=O)N(C)[C@@H](C)C(=O)N[C@@H](CC(N)=O)C(=O)N2CCC[C@H]2C(=O)N[C@@H](CN)C(=O)N[C@@H](CC(C)C)C(=O)N2C[C@H](O)C[C@H]2C(=O)N[C@@H](Cc2c[nH]c3ccccc23)C(=O)N[C@@H](CCN)C(=O)N[C@@H](Cc2cn(CC(=O)O)c3ccccc23)C(=O)N1C` [Compound (II)] as the compound, how does the “BA (%) using AUCInf Mean” value [1] read?
**A.** Its value is 100.00%.

**Q.** What about the AUC(0-inf) ([2]; blood) of the same compound?
**A.** Its AUC(0-inf) is 52 µM·h.

**Q.** What about the AUC(0-t) ([2]; in vivo) of the same compound?
**A.** Its AUC(0-t) is 47.6 µM·h.

**Q.** And the Cmax ([2]; in vivo)?
**A.** Its Cmax is 0.798 µM.

**Q.** And the AUC(0-inf) [3]?
**A.** Its AUC(0-inf) is 402 µM·h.

**Q.** And the Cmax [3]?
**A.** Its Cmax is 8.55 µM.

**Q.** What about the Tmax [3] of the same compound?
**A.** Its Tmax is 12 min.

**Q.** What about the AUC(0-t) ([3]; AUC0-24 h (nM · h) Mean) of the same compound?
**A.** Its AUC(0-t) is 126 µM·h.

**Q.** What about the AUC(0-t) ([3]; AUC0-t (nM · h)* Mean) of the same compound?
**A.** Its AUC(0-t) is 322 µM·h.

**Q.** And the Cmax [4]?
**A.** The Cmax was 25500 ng/mL.

**Q.** And the Tmax [4]?
**A.** Its Tmax is 12 min.

**Q.** What about the AUC(0-t) ([4]; AUC0-24 h (ng · h/mL) Mean) of the same compound?
**A.** Its AUC(0-t) is 376 µg·h/mL.

**Q.** What about the AUC(0-t) ([4]; AUC0-72 h (ng · h/mL) Mean) of the same compound?
**A.** The AUC(0-t) was 833 µg·h/mL.

**Q.** What about the AUC(0-inf) [5] of the same compound?
**A.** The AUC(0-inf) was 402 µM·h.

**Q.** And the Cmax [5]?
**A.** The Cmax was 8.55 µM.

**Q.** And the Tmax ([6]; 0.1 mg/kg)?
**A.** Its Tmax is 18 min.

**Q.** What about the level at time molar at 24 h ([6]; 0.1 mpk) of the same compound?
**A.** The level at time molar at 24 h was 0.544 µM.

**Q.** What about the “systemic absorption, intestinal compartment compared to the gastric compartment” value [7] of the same compound?
**A.** The value was “good systemic absorption”.

**Q.** And the Tmax [8]?
**A.** The Tmax was 12 min.
